Consider 23 molecules from patent publication US20140045746A1 (Merck Sharp & Dohme Corp., priority 2012, published 2014).

For orientation: EC50 means the concentration needed to bring the measured effect to its halfway point.

Each structure is given as a SMILES string.

Experiment [1] concerns the target T1, hGPR40 (Homo sapiens, UniProt O14842). The experiment in a line: GPR40 Inositol Phosphate Turnover (IP1) Assay. Also noted: expressed in transfected cells; host or cells: HEK cells stably expressing the aequorin reporter. Format: cell-based. Conditions: HEK cells stably expressing human GPR40; 0% serum; read-out: hGPR40 IP1 EC50 (0% serum).
Procedure: A human GPR40 stable cell-line was generated in HEK cells stably expressing the aequorin expressing reporter.
The assay is performed in 96-well format. HEK cells stably expressing human GPR^40 are plated to be 60-80% confluent within 72 h. After 72 h, the plates are aspirated and the cells washed with inositol-free DMEM (ICN). The wash media is replaced with 150 μL of 3H-inositol labeling media (inositol-free media containing 0.4% human albumin or 0.4% mouse albumin, 1× pen/strep antibiotics, glutamine, 25 mM HEPES to which is added 3H-myo-inositol NEN #NET114A 1mCi/mL, 25 Ci/mmol diluted 1:150 in loading media with a final specific radioactivity of 1 μCi/150 μL). Alternatively, the human and mouse albumin can be added after the overnight labeling step before the addition of LiCl.
The assay is typically run the next day after 18 h labeling. On the day of the assay, 5 μL, of 300 mM LiCl is added to all wells and incubated at 37 degrees for 20 min. 0.75 μL of 200× compounds are added and incubated with the cells for 60 min at 37 degrees. The media is then aspirated off and the assay terminated with the addition of 60 nI, 10 mM formic acid. The cells are lysed for 60 min at room temperature. 15-30 nI, of lysate is mixed with 70 mL/1 mg YSi SPA beads (Amersham) in clear bottom Isoplates. The plates are shaken for 2 h at room temperature. Beads are allowed to settle and the plates are counted in the Wallac Microbeta.
Experiment [2] deals with T1, hGPR40. As to the kind of experiment: GPR40 FLIPR assay (agonist-induced calcium mobilization).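 Further: calcium mobilization in the cells read as fluorescence of fluo-4 AM loaded cells on FLIPR after compound addition, cells preloaded with dye 100 min at room temperature.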 Conditions: GPR40/CHO NFAT BLA cells. On the set-up: expressed in transfected cells; host or cells: CHO cells stably expressing NFAT BLA (beta-lactamase). Format: cell-based.
Procedure: Human and mouse GPR40 stable cell-lines were generated in CHO cells stably expressing NFAT BLA (Beta-lactamase). […] The expression plasmids were transfected using lipofectamine (Life Technologies) following manufacturer's instructions. Stable cell-lines were generated following drug selection.
FLIPR (Fluorimetric Imaging Plate Reader, Molecular Devices) assays were performed to measure agonist-induced calcium mobilization of the stable clones. For the FLIPR assay, one day before assay, GPR40/CHO NFAT BLA cells were seeded into black-wall-clear-bottom 384-well plates (Costar) at 1.4×10e4 cells/20 μL medium/well. The cells were incubated with 20 μl/well of the assay buffer (HBSS, 0.1% BSA, 20 mM HEPES, 2.5 mM probenecid, pH 7.4) containing 8 μM fluo-4, AM, 0.08% pluronic acid at room temperature for 100 minutes. Fluorescence output was measured using FLIPR. Compounds were dissolved in DMSO and diluted to desired concentrations with assay buffer. 13.3 μL/well of compound solution was added.

T1 sequence (O14842 whole entry): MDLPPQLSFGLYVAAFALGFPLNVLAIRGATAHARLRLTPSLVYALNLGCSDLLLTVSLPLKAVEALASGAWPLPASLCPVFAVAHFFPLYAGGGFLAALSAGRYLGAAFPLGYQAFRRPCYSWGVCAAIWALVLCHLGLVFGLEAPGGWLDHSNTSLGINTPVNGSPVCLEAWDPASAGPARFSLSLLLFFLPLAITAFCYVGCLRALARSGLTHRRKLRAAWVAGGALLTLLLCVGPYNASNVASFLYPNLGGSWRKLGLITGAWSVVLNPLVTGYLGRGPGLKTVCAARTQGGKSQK

With `Cc1cccc(C)c1-c1ccc(F)c(COc2cc3c(cn2)[C@H]2[C@@H](C3)[C@@H]2C(=O)O)c1` [Compound 22-2], the EC50 was determined as 0.026 µM in experiment [1] and 0.049 µM in experiment [2].
For `O=C(O)C1C2Cc3cc(OCc4cc(-c5ccccc5C(F)(F)F)ccc4F)ncc3C21` (stereo not shown) [Compound 22-3, 3-((4-fluoro-2′-(trifluoromethyl)-[1,1′-biphenyl]-3-yl)methoxy)-5,5a,6,6a-tetrahydrocyclo-propa[4,5]cyclopenta[1,2-c]pyridine-6-carboxylic acid], in that order: 0.035 µM and 0.036 µM.
For `O=C(O)C1C2Cc3cc(OCc4cc(-c5ccc(C(F)(F)F)cc5)ccc4F)ncc3C21` (stereo not shown) [Compound 22-4, 3-((4-fluoro-4′-(trifluoromethyl)-[1,1′-biphenyl]-3-yl)methoxy)-5,5a,6,6a-tetrahydrocyclo-propa[4,5]cyclopenta[1,2-c]pyridine-6-carboxylic acid], in that order: 0.24 µM and 0.054 µM.
`O=C(O)C1C2Cc3cc(OCc4cc(-c5cccc(C(F)(F)F)c5)ccc4F)ncc3C21` (stereo not shown) [Compound 22-5, 3-((4-fluoro-3′-(trifluoromethyl)-[1,1′-biphenyl]-3-yl)methoxy)-5,5a,6,6a-tetrahydrocyclo-propa[4,5]cyclopenta[1,2-c]pyridine-6-carboxylic acid]: the EC50 in experiment [1] turned out to be 0.31 µM; in experiment [2], 0.047 µM.
For `O=C(O)C1C2Cc3cc(OCc4cc(-c5c(F)cccc5C(F)(F)F)ccc4F)ncc3C21` (stereo not shown) [Compound 22-6, 3-((2′,4-difluoro-6′-(trifluoromethyl)-[1,1′-biphenyl]-3-yl)methoxy)-5,5a,6,6a-tetrahydrocyclo-propa[4,5]cyclopenta[1,2-c]pyridine-6-carboxylic acid], the EC50 in experiment [1] amounted to 0.1 µM; in experiment [2], 0.087 µM.
Consider `O=C(O)C1C2Cc3cc(OCc4cc(-c5cc(Cl)cc(C(F)(F)F)c5)ccc4F)ncc3C21` (stereo not shown) [Compound 22-7, 3-((3′-chloro-4-fluoro-5′-(trifluoromethyl)-[1,1′-biphenyl]-3-yl)methoxy)-5,5a,6,6a-tetrahydrocyclo-propa[4,5]cyclopenta[1,2-c]pyridine-6-carboxylic acid], for which the EC50 is 0.4 µM in experiment [1] and 0.067 µM in experiment [2].
As for `O=C(O)C1C2Cc3cc(OCc4cc(-c5cccnc5C(F)(F)F)ccc4F)ncc3C21` (stereo not shown) [Compound 22-8, 3-((2-fluoro-5-(2-(trifluoromethyl)pyridin-3-yl)benzyl)oxy)-5,5a,6,6a-tetrahydrocyclopenta[4,5] cyclopenta[1,2-c]pyridine-6-carboxylic acid], the EC50 in experiment [1] was 0.075 µM; in experiment [2], 0.048 µM.
For `O=C(O)C1C2Cc3cc(OCc4cc(-c5ncccc5C(F)(F)F)ccc4F)ncc3C21` (stereo not shown) [Compound 22-9, 3-((2-fluoro-5-(3-(trifluoromethyl)pyridin-2-yl)benzyl)oxy)-5,5a,6,6a-tetrahydrocyclopropa[4,5] cyclopenta[1,2-c]pyridine-6-carboxylic acid], in that order: 0.85 µM and 0.095 µM.
As for `Cc1cc(OCCCS(C)(=O)=O)ncc1-c1ccc(F)c(COc2cc3c(cn2)[C@H]2[C@@H](C3)[C@@H]2C(=O)O)c1` [Compound 23-8, 4-{2-Fluoro-5-[6-(3-methanesulfonyl-propoxy)-4-methyl-pyridin-3-yl]-benzyloxy}-1,1a,6,6a-tetrahydro-3-aza-cyclopropa[a]indene-1-carboxylic acid], the EC50 in experiment [1] amounted to 0.0048 µM; in experiment [2], 0.026 µM.
For `Cc1nc(OCCCS(C)(=O)=O)ccc1-c1ccc(F)c(COc2cc3c(cn2)[C@H]2[C@@H](C3)[C@@H]2C(=O)O)c1` [Compound 23-10, (5aR,6S,6aS)-3-((2-fluoro-5-(2-methyl-6-(3-(methylsulfonyl)propoxy)pyridin-3-yl)benzyl)oxy)-5,5a,6,6a-tetrahydro-cyclopropa[4,5] cyclopenta[1,2-c] pyridine-6-carboxylic acid], in that order: 0.015 µM and 0.046 µM.
As for `Cc1cc(OCCCS(C)(=O)=O)nc(C)c1-c1cccc(COc2cc3c(cn2)[C@H]2[C@@H](C3)[C@@H]2C(=O)O)c1` [Compound 23-11, (5aR,6S,6aS)-3-((3-(2,4-dimethyl-6-(3-(methylsulfonyl)propoxy)pyridin-3-yl)benzyl)oxy)-5,5a, 6,6a-tetrahydrocyclo propa[4,5]cyclopenta [1,2-c]pyridine-6-carboxylic acid], the results for the EC50 in experiment [1] and in experiment [2] were 0.025 µM and 0.05 µM, respectively.
With `Cc1cc(OCCCS(C)(=O)=O)nc(C)c1-c1ccc(F)c(COc2cc3c(cn2)[C@H]2[C@@H](C3)[C@@H]2C(=O)O)c1` [Compound 23-12, (5aR,6S,6aS)-3-((5-(2,4-dimethyl-6-(3-(methylsulfonyl)propoxy)pyridin-3-yl)-2-fluorobenzyl)oxy)-5,5a,6,6a-tetrahydrocyclopropa [4,5]cyclopenta[1,2-c] pyridine-6-carboxylic acid], the EC50 in experiment [1] came to 0.012 µM; in experiment [2] it was 0.035 µM.
The matching figures for `Cc1nc(OCCCS(C)(=O)=O)nc(C)c1-c1ccc(F)c(COc2cc3c(cn2)C2C(C3)C2C(=O)O)c1` (stereo not shown) [Compound 23-13, 3-((5-(4,6-dimethyl-2-(3-(methylsulfonyl)propoxy)pyrimidin-5-yl)-2-fluorobenzyl)-oxy)-5,5a,6,6a-tetrahydrocyclopropa [4,5]cyclopenta[1,2-c]pyridine-6-carboxylic acid]: 0.11 µM and 0.077 µM.
`Cc1nc(OCCCS(C)(=O)=O)sc1-c1ccc(F)c(COc2cc3c(cn2)C2C(C3)C2C(=O)O)c1` (stereo not shown) [Compound 23-14, 3-((2-fluoro-5-(4-methyl-2-(3-(methylsulfonyl)-propoxy)thiazol-5-yl)-benzyl)oxy)-5,5a,6,6a-tetrahydrocyclopropa [4,5]cyclopenta[1,2-c] pyridine-6-carboxylic acid]: the EC50 was found to be 0.034 µM in experiment [1] and 0.018 µM in experiment [2].
The matching figures for `Cc1nc(OCCCN2CCCC2=O)ccc1-c1ccc(F)c(COc2cc3c(cn2)C2C(C3)C2C(=O)O)c1` (stereo not shown) [Compound 23-15, 3-((2-fluoro-5-(2-methyl-6-(3-(2-oxopyrrolidin-1-yl)propoxy)pyridin-3-yl)benzyl)oxy)-5,5a,6,6a-tetahydrocyclopropa[4,5] cyclopenta[1,2-c]pyridine-6-carboxylic acid]: 0.027 µM and 0.038 µM.
As to `CS(=O)(=O)CCCOc1cc(OC(F)F)c(-c2ccc(F)c(COc3cc4c(cn3)[C@H]3[C@@H](C4)[C@@H]3C(=O)O)c2)cn1` [Compound 23-17, (5aR,6S,6aS)-3-((5-(4-(difluoro-methoxy)-6-(3-(methylsulfonyl)propoxy)pyridin-3-yl)-2-fluorobenzyl)-oxy)-5,5a,6,6a-tetrahydrocyclopropa [4,5]cyclopenta[1,2-c] pyridine-6-carboxylic acid], the EC50 came out at 0.082 µM in experiment [1] and 0.058 µM in experiment [2].
Regarding `Cc1nc(OCC(F)(F)C(F)(F)F)ccc1-c1ccc(F)c(COc2cc3c(cn2)C2C(C3)C2C(=O)O)c1` (stereo not shown) [Compound 23-18, 3-((2-fluoro-5-(2-methyl-6-(2,2,3,3,3-pentafluoro-propoxy)pyridin-3-yl)-benzyl)oxy)-5,5a,6,6a-tetra-hydrocyclopropa[4,5] cyclopenta[1,2-c]pyridine-6-carboxylic acid], the values for the EC50 in experiment [1] and in experiment [2] were 0.056 µM and 0.01 µM, respectively.
As for `Cc1nc(OCCCS(C)(=O)=O)ccc1-c1ccc(F)c(CNc2cc3c(cn2)C2C(C3)C2C(=O)O)c1` (stereo not shown) [Compound 24-4, 3-((2-fluoro-5-(2-methyl-6-(3-(methylsulfonyl)propoxy)pyridin-3-yl)benzyl)amino)-5,5a,6,6a-tetrahydrocyclopropa[4,5]cyclopenta[1,2-c]pyridine-6-carboxylic acid], the EC50 came out at 0.09 µM in experiment [1] and 0.096 µM in experiment [2].
On to `O=C(O)[C@H]1[C@@H]2Cc3cc(OCc4cc(Oc5ccccc5C(F)(F)F)ccc4F)ncc3[C@@H]21` [Compound 25-2, 4-[2-Fluoro-5-(2-trifluoromethyl-phenoxy)-benzyloxy]-1,1a,6,6a-tetrahydro-3-aza-cyclopropa[a]indene-1-carboxylic acid], for which the 50% effective concentration (EC50) was 0.056 µM in experiment [1] and 0.035 µM in experiment [2].
The matching figures for `O=C(O)[C@H]1[C@@H]2Cc3cc(OCc4cc(Oc5ccccc5)ccc4F)ncc3[C@@H]21` [Compound 25-3, 4-(2-Fluoro-5-phenoxy-benzyloxy)-1,1a, 6,6a-tetrahydro-3-aza-cyclopropa [a]indene-1-carboxylic acid]: 0.085 µM and 0.034 µM.
For `O=C(O)[C@H]1[C@@H]2Cc3cc(OCc4cc(Oc5ccc(C(F)(F)F)cc5Cl)ccc4F)ncc3[C@@H]21` [Compound 25-4, 4-[5-(2-Chloro-4-trifluoromethyl-phenoxy)-2-fluoro-benzyloxy]-1,1a, 6,6a-tetrahydro-3-aza-cyclopropa [a]indene-1-carboxylic acid], in that order: 0.3 µM and 0.049 µM.
As for `Cc1cccc(C)c1-c1ccc(F)c(COc2cc3c(cn2)C2C(C3)C2C(=O)O)n1` (stereo not shown) [Compound 26-7, 3-((6-(2,6-dimethylphenyl)-3-fluoropyridin-2-yl)methoxy)-5,5a,6,6a-tetrahydrocyclopropa[4,5]cyclopenta[1,2-c]pyridine-6-carboxylic acid], the figures for the EC50 in experiment [1] and in experiment [2] were 0.12 µM and 0.042 µM, respectively.
Turning to `Cc1cccc(C)c1-c1cc(COc2cc3c(cn2)C2C(C3)C2C(=O)O)c(F)cn1` (stereo not shown) [Compound 26-8, 3-((2-(2,6-dimethyl-phenyl)-5-fluoropyridin-4-yl)methoxy)-5,5a,6,6a-tetrahydrocyclopropa [4,5]cyclopenta[1,2-c]pyridine-6-carboxylic acid], the EC50 worked out at 0.1 µM in experiment [1] and 0.028 µM in experiment [2].
